Assay results published in ChEMBL document CHEMBL2202954, “The effect of PLC-γ2 inhibitors on the growth of human tumour cells” (2012).

Columns and labels:
Format in all cases: functional
[1] = tested on: OVCAR-3; assay: Cytotoxicity against human OVCAR3 cells assessed as cellular growth at 10 uM by SRB assay
[2] = tested on: HL-60(TB); assay: Cytotoxicity against human HL-60(TB) cells assessed as cellular growth at 10 uM by SRB assay
[3] = tested on: U-251; assay: Cytotoxicity against human U251 cells assessed as cellular growth at 10 uM by SRB assay
[4] = tested on: Malme-3M; assay: Cytotoxicity against human MALME-3M cells assessed as cellular growth at 10 uM by SRB assay
[5] = tested on: SNB-19; assay: Cytotoxicity against human SNB19 cells assessed as cellular growth at 10 uM by SRB assay
[6] = tested on: OVCAR-8; assay: Cytotoxicity against human OVCAR8 cells assessed as cellular growth at 10 uM by SRB assay
[7] = tested on: SK-MEL-2; assay: Cytotoxicity against human SK-MEL-2 cells assessed as cellular growth at 10 uM by SRB assay
[8] = tested on: TK-10; assay: Cytotoxicity against human TK10 cells assessed as cellular growth at 10 uM by SRB assay
[9] = tested on: NCI-H460; assay: Cytotoxicity against human NCI-H460 cells assessed as cellular growth at 10 uM by SRB assay
[10] = tested on: SN12C; assay: Cytotoxicity against human SN12C cells assessed as cellular growth at 10 uM by SRB assay
[11] = tested on: A549; assay: Cytotoxicity against human A549 cells assessed as cellular growth at 10 uM by SRB assay
[12] = tested on: A498; assay: Cytotoxicity against human A498 cells assessed as cellular growth at 10 uM by SRB assay
[13] = tested on: UO-31; assay: Cytotoxicity against human UO31 cells assessed as cellular growth at 10 uM by SRB assay
[14] = tested on: IGROV-1; assay: Cytotoxicity against human IGROV1 cells assessed as cellular growth at 10 uM by SRB assay
[15] = tested on: SW-620; assay: Cytotoxicity against human SW620 cells assessed as cellular growth at 10 uM by SRB assay
[16] = tested on: ACHN; assay: Cytotoxicity against human ACHN cells assessed as cellular growth at 10 uM by SRB assay
[17] = tested on: K562; assay: Cytotoxicity against human K562 cells assessed as cellular growth at 10 uM by SRB assay
[18] = tested on: BT-549; assay: Cytotoxicity against human BT549 cells assessed as cellular growth at 10 uM by SRB assay
[19] = tested on: COLO 205; assay: Cytotoxicity against human COLO205 cells assessed as cellular growth at 10 uM by SRB assay
[20] = tested on: NCI-H226; assay: Cytotoxicity against human NCI-H226 cells assessed as cellular growth at 10 uM by SRB assay

Compound | Activity [1] | Activity [2] | Activity [3] | Activity [4] | Activity [5] | Activity [6] | Activity [7] | Activity [8] | Activity [9] | Activity [10] | Activity [11] | Activity [12] | Activity [13] | Activity [14] | Activity [15] | Activity [16] | Activity [17] | Activity [18] | Activity [19] | Activity [20]
COc1ccc2nc(NC(=O)c3ccc(F)cc3)sc2c1 | 101.58% | 108.33% | 98.75% | 92.36% | 109.05% | 94.61% | 143.55% | 98.88% | 19.56% | 112.11% | 47.59% | 85.54% | 99.75% | 98.94% | 101.19% | 88.79% | 82.42% | 104.05% | 115.29% | 92.48%
COc1ccc2[nH]c(C(=O)NCc3ccccc3)cc2c1 | 112.21% | 95.91% | 98.45% | 88.8% | 101.29% | 102.92% | 108.1% | 120.94% | 110.92% | 97.3% | 100.34% | 92.89% | 75.52% | 99.05% | 107.28% | 94.48% | 92.68% | 104.33% | 123.53% | 96.37%
CC1(C)CCc2cc(-c3ccn(S(=O)(=O)c4ccccc4Cl)n3)ccc2O1 | 93.06% | 81.19% | 67.67% | 98.68% | 88.07% | 89.74% | 102.25% | 74.57% | 79.3% | 75.88% | 80.53% | 71.86% | 90.06% | 113.61% | 79.15% | 98.39% | 43% | 99.65% | 88.88% | 90.58%
CC1(C)CC(=O)c2cc3c(N)c(C(=O)NCc4ccccc4)sc3nc2C1 | 115.21% | 120.86% | 99.82% | 104.51% | 108.68% | 95.57% | 114.95% | 106.71% | 101.02% | 98.59% | 99.09% | 89.05% | 110.68% | 107.02% | 111.03% | 102.79% | 117.84% | 110.98% | 128.9% | 86.42%
Nc1c(C(=O)NCc2ccccc2)sc2nc3c(cc12)C(=O)CCC3 | 115.33% | 119.79% | 99.51% | 139.75% | 117.75% | 114.43% | 121.61% | 115.8% | 101.03% | 101.11% | 103.07% | 100.49% | 109.24% | 124.94% | 105.63% | 112.59% | 111.11% | 120.38% | 133.04% | 106.37%
O=C(NCCc1ccccc1)c1[nH]c2ccccc2c1Cl | 72.81% | 90.02% | 92.92% | 109.22% | 99.04% | 84.42% | 129.02% | 154.81% | 89.75% | 97.03% | 96.24% | 81.46% | 57.64% | 82.65% | 92.61% | 90.71% | 74.92% | 91.75% | 99.13% | 73.27%
O=C(NCCc1ccc(Cl)cc1)c1[nH]c2ccccc2c1Cl | 100.99% | 94.84% | 100.14% | 107.52% | 98.39% | 96.34% | 130.7% | 160.82% | 93.16% | 97.33% | 92.96% | 77.04% | 73.65% | 93.76% | 92.87% | 99.57% | 67.44% | 111.29% | 97.59% | 89.37%
O=C(NCc1ccc(Cl)cc1)c1[nH]c2ccccc2c1Cl | 97.31% | 109.59% | 105.3% | 98.93% | 108.55% | 104.08% | 111.13% | 163.4% | 99.81% | 99.33% | 94.27% | 76.55% | 80.6% | 106.79% | 98.38% | 104.7% | 102.78% | 104.79% | 104.86% | 89.64%
